In US20240325397A1, “USE OF COMBINATION THERAPY FOR TREATING CANCER” (Recurium IP Holdings, LLC, priority 2021, published 2024):

Tests used:
[1] = system: MCF-7 cells; experiment: Compound (A) in combination with palbociclib at a lower dose in MCF-7 xenograft model; format: in vivo, mouse; conditions: Compound (A) 60 mg/kg, palbociclib 25 mg/kg, alone or in combination; FIG. 7
Procedure: The antitumor activity of Compound (A) in combination with a CDK4/6 inhibitor, palbociclib at a lower dose was evaluated in the MCF-7 xenograft model. Each mouse was inoculated subcutaneously on the 2nd right mammary fat pad with 1.5×10^7 MCF-7 cells in 200 μL DMEM Matrigel mixture (1:1 ratio) without serum for the tumor development. In addition, estradiol benzoate injection was delivered by s.c. (40 ug/20 uL, twice weekly). The treatments were started when mean tumor size reached 203 mm^3. Mice were randomized into 4 groups (8 mice per group) and treated with vehicle control, 60 mg/kg Compound (A) alone, 25 mg/kg Palbociclib alone, Compound (A) at 60 mg/kg in combination with 25 mg/kg palbociclib. Study endpoints included daily body weight, clinical observations, tumor volume.

[2] = system: palbociclib-resistant breast cancer cells (CTG-1207); experiment: Palbociclib-resistant breast cancer PDX model (CTG-1207); format: in vivo, mice; conditions: Compound (A) 80 mg/kg, palbociclib 50 mg/kg, alone or in combination; FIG. 10A
Procedure: The antitumor activity of Compound (A) in combination with palbociclib was further evaluated in a palbociclib-resistant breast cancer PDX model (CTG-1207). Mice were inoculated subcutaneously with palbociclib-resistant breast cancer cells in DMEM Matrigel mixture (1:1 ratio) without serum for tumor development. Once tumor size reached approximately 200 mm^3, mice were randomized into 4 groups (8 mice per group) and treated with vehicle control, 80 mg/kg Compound (A) alone, 50 mg/kg Palbociclib alone, or Compound (A) at 80 mg/kg in combination with 50 mg/kg palbociclib. Study endpoints included daily body weight, clinical observations, tumor volume.

[3] = system: HER2+ JIMT-1 breast cancer cell line; experiment: HER2+ JIMT-1 breast cancer xenograft, Study 1-Part 1; format: in vivo; conditions: Compound (A) 60 mg/kg p.o. qd × 28, trastuzumab 10 mg/kg i.p. qw × 4
Procedure: The HER2+ JIMT-1 breast cancer cell line was used for tumor xenograft inoculations and subsequent treatment. […] Treatment was started when mean tumor size reached 204 mm^3. Mice were then randomized into 5 groups and treatments were administered to the tumor-bearing mice accordingly to the study design in Table 2.

[4] = system: HER2+ JIMT-1 breast cancer cell line; experiment: HER2+ JIMT-1 breast cancer xenograft, Study 1-Part 2 (high initial tumor burden); format: in vivo, NOD/SCID mice; conditions: Day 14 of second part; tumors approximately 1000 mm^3 at start; Compound (A) 60 mg/kg p.o. qd; trastuzumab 10 mg/kg i.p. qw; vs. vehicle
[5] = system: MCF-7 tumor cells; experiment: Antitumor activity of Compound (A) as single agent in MCF-7 xenograft model; format: in vivo, mouse
Procedure: The antitumor activity of Compound (A) was assessed using the MCF-7 xenograft model. Each mouse was inoculated subcutaneously on the 2nd right mammary fat pad with 1.5×10^7 MCF-7 tumor cells in 200 μL DMEM Matrigel mixture (1:1 ratio) without serum for the tumor development. In addition, estradiol benzoate injection was delivered by s.c. (40 ug/20 uL, twice weekly). When mean tumor size reached 204 mm^3, animals were randomized into 2 groups (10 animals/group) and the treatments were initiated. Compound (A) or vehicle control was administered once daily by oral gavage and continued for 28-days. Study endpoints included daily body weight, clinical observations, tumor volume. […] In FIG. 3, the top line is vehicle, and the bottom line is Compound (A) (80 mg/kg qd×22 p.o).

[6] = system: HCC1428 tumor cells; experiment: Activity in mice bearing human HCC1428 breast cancer xenograft tumors; format: in vivo
Procedure: The activity of Compound (A) as evaluated in mice bearing human HCC1428 breast cancer xenograft tumors. Each mouse was inoculated subcutaneously at the right flank with HCC1428 tumor cells (1×10^7) in 0.2 mL mixture of PBS and Matrigel (PBS: Matrigel=1:1) for tumor development, which has been subcutaneously implanted with 17beta-estradiol tablets (0.18 mg, 90-day release) two days before cell implantation. Treatments were started on day 21 after tumor inoculation when the average tumor size reached approximately 185 mm^3. The animals were assigned into two groups using an excel-based randomization software performing stratified randomization based upon their tumor volumes. Each group consisted of 10 tumor bearing mice. The vehicle control or Compound (A) at 80 mg/kg was administrated once daily to the mice by oral gavage for 28 days. In FIG. 5, the top line is vehicle, and the bottom line is Compound (A).

[7] = system: MCF-7 tumor cells; experiment: Compound (A) in combination with palbociclib in MCF-7 xenograft model; format: in vivo, mouse; conditions: 28 days; for tumor regression: Compound (A) 80/60 mg/kg, palbociclib 50 mg/kg, alone or in combination; for TGI: monotherapy: Compound (A) 80/60 mg/kg alone or palbociclib 50 mg/kg alone, FIG. 6
Procedure: The antitumor activity of Compound (A) in combination with a CDK4/6 inhibitor, palbociclib was evaluated in the MCF-7 xenograft model. Each mouse was inoculated subcutaneously on the right flank with the MCF-7 tumor cells (1.5×10^7) in 200 μL DMEM Matrigel mixture (1:1 ratio) without serum for the tumor development. In addition, estradiol benzoate injection was delivered by s.c. (40 ug/20 uL, twice weekly). When mean tumor size reached 202 mm^3, mice were randomized into 5 groups (10 animals/group) and treatment was started. Animals were dosed with vehicle, 80/60 mg/kg Compound (A) alone, 50 mg/kg palbociclib alone, 80 mg/kg Compound (A) in combination with 50 mg/kg Palbociclib by sequential dosing schedule (alternated per two weeks) or Compound (A) at 80/60 mg/kg in combination with palbociclib at 50 mg/kg. Treatment periods were 28 days. In FIG. 6, the top line (indicated with circles) is vehicle. […] Furthermore, Compound (A) in combination with palbociclib induced around 55% tumor regression.

[8] = system: tamoxifen resistant ZR-75-1 tumor cells (ZR-75-1R); experiment: Single agent efficacy in ZR-75-1 tamoxifen resistant tumor model; format: in vivo, mouse; conditions: post 28 days treatment; Tamoxifen 100 mg/kg 5 days per week for three weeks; Compound (A) 80 mg/kg orally daily for 28 days; FIG. 4
Procedure: Compound (A)'s efficacy as a single agent was evaluated in ZR-75-1 tamoxifen resistant tumor model. The tamoxifen resistant ZR-75-1 tumor cells (ZR-75-1R) were maintained in vitro as monolayer culture in RPMI1640 Medium supplemented with 10% fetal bovine serum and 10 μM tamoxifen at 37° C. in an atmosphere of 5% CO2 incubator. Each mouse was then inoculated subcutaneously on the right flank with 1×10^7 ZR-75-1R tumor cells in 100 μL RPMI-1640 Matrigel mixture (1:1 ratio) without serum for the tumor development. In addition, estradiol benzoate injection was delivered by s.c. (40 ug/20 uL, twice weekly). Mice were then randomized into 3 groups when mean tumor size reached 191 mm^3 and treatment was started. Tamoxifen was dosed at 100 mg/kg 5 days per week for three weeks, Compound (A) was orally dosed at 80 mg/kg daily for 28 days. Study endpoints included daily body weight, clinical observations, tumor volume. In FIG. 4, the top line is Tamoxifen (100 mg/kg), the middle line is vehicle, and the bottom line is Compound (A) (80 mg/kg). […] No other gross clinical abnormalities were observed during the treatment period and animal body loss was manageable by giving animals dosing holiday.

[9] = Compound (A) 80 mg/kg once daily p.o.
[10] = Compound (A) 80 mg/kg once daily p.o. 28 days

SMILES: C=CCn1c(=O)c2cnc(Nc3ccc(N4CCN(C)CC4)cc3)nc2n1-c1ccc2c(n1)[C@@](O)(CC)CC2 [Compound (A)]
- TGI [1]: 48.6%
- tumor growth / TGI (in words) [2]: reduced tumor growth
- tumor growth inhibition (TGI) on Day 29 compared to respective vehicle controls ([3]; combination vs. either vehicle control): 68%
- TGI (%) vs. Vehicle A ([3]; Day 29, Vehicle A p.o.): 67.7%
- TGI (%) on Day 14 [4]: 68.2%
- inhibition of tumor growth ([5]; Compound (A) 80 mg/kg once daily by oral gavage, single agent, FIG. 3): 132.6%
- clinical observations [5, 9]: no adverse clinical observations
- mean body weights [5, 9]: no significant impact on mean body weights
- tumor growth inhibition (TGI) ([6]; Compound (A) 80 mg/kg once daily by oral gavage for 28 days, FIG. 5): 96.2%
- body weight loss [6, 10]: no significant body weight loss
- clinical observations [6, 10]: no adverse clinical observations
- tumor regression [7]: 32.7%
- TGI [7]: around 116%
- TGI (tumor growth inhibition) [8]: 69.9%

SMILES: CC/C(=C(\c1ccccc1)c1ccc(OCCN(C)C)cc1)c1ccccc1 [Tamoxifen, reference compound]
- TGI (tumor growth inhibition) [8]: −47.9%

SMILES: CC(=O)c1c(C)c2cnc(Nc3ccc(N4CCNCC4)cn3)nc2n(C2CCCC2)c1=O [palbociclib, reference compound]
- TGI [1]: 14.2%
- tumor regression [7]: 39.1%
- TGI [7]: ~119%
